Where a name gives a salt, the structure may show the parent alone.
Columns and labels:
human α2a receptor = target: T1, human α2a receptor (Homo sapiens, UniProt P08913); assay: Competition binding ([3H]rauwolscine) at cloned human α2a receptor; details: transfected LM(tk−) cells, [3H]rauwolscine 0.5 nM; read-out: Binding affinity hα2a
T1 construct: expressed in transfected cells
T1 sequence (P08913 1-465): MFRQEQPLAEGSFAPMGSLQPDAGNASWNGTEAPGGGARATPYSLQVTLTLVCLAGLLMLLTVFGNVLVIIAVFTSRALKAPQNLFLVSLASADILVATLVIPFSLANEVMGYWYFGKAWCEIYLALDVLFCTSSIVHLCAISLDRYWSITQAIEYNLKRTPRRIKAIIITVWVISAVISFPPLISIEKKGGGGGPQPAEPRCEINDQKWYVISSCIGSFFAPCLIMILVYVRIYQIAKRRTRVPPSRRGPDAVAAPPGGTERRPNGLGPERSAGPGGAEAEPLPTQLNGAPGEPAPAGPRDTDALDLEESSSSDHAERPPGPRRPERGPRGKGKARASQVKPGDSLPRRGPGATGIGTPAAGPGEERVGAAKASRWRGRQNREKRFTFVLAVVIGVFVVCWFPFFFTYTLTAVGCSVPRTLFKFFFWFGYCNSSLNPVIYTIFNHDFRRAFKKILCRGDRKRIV
Source text: (§1) α2 Human Adrenergic Receptors
(§2) To determine the potency of α1 antagonists at the α2 receptors, LM(tk−) cell lines stably transfected with the genes encoding the α2a, α2b, and α2c receptors were used. The cell line expressing the α2a receptor is designated L-α2A, and was deposited on Nov. 6, 1992 under ATCC Accession No. CRL 11180. The cell line expressing the α2b receptor is designated L-NGC-α2B, and was deposited on Oct. 25, 1989 under ATCC Accession No. CRL10275. The cell line expressing the α2c receptor is designated L-α2C, and was deposited on Nov. 6, 1992 under ATCC Accession No. CRL-11181. All the cell lines were deposited with the American Type Culture Collection, 12301 Parklawn Drive, Rockville, Md. 20852, U.S.A. under the provisions of the Budapest Treaty for the International Recognition of the Deposit of Microorganisms for the Purposes of Patent Procedure. Cell lysates were prepared as described above (see Radioligand Binding Assays), and suspended in 25 mM glycylglycine buffer (pH 7.6 at room temperature). Equilibrium competition binding assay were performed using [3H]rauwolscine (0.5 nM), and nonspecific binding was determined by incubation with 10 μM phentolamine. The bound radioligand was separated by filtration through GF/B filters using a cell harvester.

human α2b receptor = target: T2, human α2b receptor (Homo sapiens, UniProt P18089); assay: Competition binding ([3H]rauwolscine) at cloned human α2b receptor; details: transfected LM(tk−) cells, [3H]rauwolscine 0.5 nM; read-out: Binding affinity hα2b
T2 construct: expressed in transfected cells
T2 sequence (P18089 1-450): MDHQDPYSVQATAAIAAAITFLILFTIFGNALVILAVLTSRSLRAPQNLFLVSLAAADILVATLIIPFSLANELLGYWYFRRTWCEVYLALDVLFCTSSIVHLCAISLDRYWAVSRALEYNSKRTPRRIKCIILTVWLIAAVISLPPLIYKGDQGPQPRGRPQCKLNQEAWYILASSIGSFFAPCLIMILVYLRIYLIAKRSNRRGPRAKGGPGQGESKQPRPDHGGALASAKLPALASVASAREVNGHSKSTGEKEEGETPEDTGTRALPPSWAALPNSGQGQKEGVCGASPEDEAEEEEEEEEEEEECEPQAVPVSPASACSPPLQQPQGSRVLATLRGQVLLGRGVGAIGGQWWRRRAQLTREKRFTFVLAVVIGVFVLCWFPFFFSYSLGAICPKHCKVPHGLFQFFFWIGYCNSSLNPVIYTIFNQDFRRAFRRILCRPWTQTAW
Source text: as §1, §2

human α2c receptor = target: T3, human α2c receptor (Homo sapiens, UniProt P18825); assay: Competition binding ([3H]rauwolscine) at cloned human α2c receptor; details: transfected LM(tk−) cells, [3H]rauwolscine 0.5 nM; read-out: Binding affinity hα2c
T3 construct: expressed in transfected cells
T3 sequence (P18825 1-462): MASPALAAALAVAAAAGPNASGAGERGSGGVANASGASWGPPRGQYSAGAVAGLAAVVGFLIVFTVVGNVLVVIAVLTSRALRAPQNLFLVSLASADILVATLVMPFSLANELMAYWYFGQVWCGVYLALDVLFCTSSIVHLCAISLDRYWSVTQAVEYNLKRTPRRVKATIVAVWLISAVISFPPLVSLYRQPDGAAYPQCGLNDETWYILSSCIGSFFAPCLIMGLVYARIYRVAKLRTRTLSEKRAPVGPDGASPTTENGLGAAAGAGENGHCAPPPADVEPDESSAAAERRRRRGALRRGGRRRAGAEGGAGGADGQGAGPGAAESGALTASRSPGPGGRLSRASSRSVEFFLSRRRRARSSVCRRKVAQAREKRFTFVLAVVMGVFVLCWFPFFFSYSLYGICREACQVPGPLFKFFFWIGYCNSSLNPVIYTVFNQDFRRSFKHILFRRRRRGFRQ
Source text: as §1, §2

human α1b receptor = target: T4, human α1b receptor (Homo sapiens, UniProt P35368); assay: Radioligand binding ([3H]prazosin) at cloned human α1b receptor; details: membranes of transfected LM(tk−) cells, [3H]prazosin 0.5 nM; read-out: Binding affinity hα1b
T4 construct: The entire coding region of α1b (1563 bp); expressed in transfected cells
T4 sequence (P35368 1-520): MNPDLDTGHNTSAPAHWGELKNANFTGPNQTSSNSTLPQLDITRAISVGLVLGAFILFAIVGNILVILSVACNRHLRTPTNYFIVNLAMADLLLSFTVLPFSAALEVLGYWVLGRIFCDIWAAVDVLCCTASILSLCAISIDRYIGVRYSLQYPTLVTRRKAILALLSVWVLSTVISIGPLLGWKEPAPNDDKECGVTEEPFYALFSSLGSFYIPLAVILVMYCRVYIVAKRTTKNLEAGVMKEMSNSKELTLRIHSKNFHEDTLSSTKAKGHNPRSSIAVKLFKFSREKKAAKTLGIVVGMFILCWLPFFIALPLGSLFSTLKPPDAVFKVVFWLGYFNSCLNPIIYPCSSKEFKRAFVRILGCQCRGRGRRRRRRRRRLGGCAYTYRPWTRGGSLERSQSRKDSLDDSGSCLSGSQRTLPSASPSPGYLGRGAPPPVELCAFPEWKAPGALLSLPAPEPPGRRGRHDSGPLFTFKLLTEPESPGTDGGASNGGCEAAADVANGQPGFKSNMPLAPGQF
Method: The activity of compounds at the different human receptors was determined in vitro using cultured cell lines that selectively express the receptor of interest. These cell lines were prepared by transfecting the cloned cDNA or cloned genomic DNA or constructs containing both genomic DNA and cDNA encoding the human α-adrenergic receptors as follows:
α1b Human Adrenergic Receptor
The entire coding region of α1b (1563 bp), including 200 base pairs and 5′ untranslated sequence (5′ UT) and 600 bp of 3′ untranslated sequence (3′ UT), was cloned into the EcoRI site of pCEXV-3 eukaryotic expression vector.
The construct involved ligating the full-length containing EcoRI brainstem cDNA fragment from λ ZapII into the expression vector. Stable cell lines were selected as described above. The cell line used herein was designated L-α1B and was deposited with the American Type Culture Collection, 12301 Parklawn Drive, Rockville, Md. 20852, U.S.A. under the provisions of the Budapest Treaty for the International Recognition of the Deposit of Microorganisms for the Purposes of Patent Procedure. The cell line L-α1B was accorded ATCC Accession No. CR 11139, on Sep. 29, 1992.
Radioligand Binding Assays for α1 Receptors
Transfected cells from culture flasks were scraped into 5 ml of 5 mM Tris-HCl, 5 mM EDTA, pH 7.5, and lysed by sonication. The cell lysates were centrifuged at 1000 rpm for 5 min at 4° C., and the supernatant was centrifuged at 30,000×g for 20 min at 4° C. The pellet was suspended in 50 mM Tris-HCl, 1 mM MgCl2, and 0.1% ascorbic acid at pH 7.5. Binding of the α1 antagonist [^3H]prazosin (0.5 nM, specific activity 76.2 Ci/mmol) to membrane preparations of LM(tk−) cells was done in a final volume of 0.25 ml and incubated at 37° C. for 20 min. Nonspecific binding was determined in the presence of 10 μM phentolamine. The reaction was stopped by filtration through GF/B filters using a cell harvester. Inhibition experiments, routinely consisting of 7 concentrations of the tested compounds, were analyzed using a non-linear regression curve-fitting computer program to obtain Ki values.

melting point	SMILES	Ki (human α2a receptor)	Ki (human α2b receptor)	Ki (human α2c receptor)	Ki (human α1b receptor)
–	COCC1=C(CC(=O)O)C(c2ccc(F)c(F)c2)N(C(=O)NCCC[N+]2([O-])CCC(c3ccccn3)CC2)C(=O)N1 (single isomer, unassigned; (+)) [Compound 4, (+)-4-(2-Pyridyl)-1-{3-[5-carboxymethyl-4-methoxymethyl-2-oxo-6-(3,4-difluorphenyl)-1,2,3,6-tetrahydropyrimidin-1-ylcarbonylamino]propyl}piperidine-1-oxide]	22 µM	17 µM	8 µM	1.35 µM
–	COC(=O)C1=C(c2ccc(F)c(F)c2)N(C(=O)NCCCN2CCC(c3ccccn3)CC2)C(=O)NC1C(=O)O (single isomer, unassigned; (+)) [Compound 6, (+)-2-Oxo-3-{N-[4-(2-pyridyl)piperidin-1-yl]propyl}carboxamido-4-(3,4-difluorophenyl)-5-methoxycarbonyl-6-carboxy-1,2,3,6-tetrahydropyrimidine]	> 50 µM	37.6 µM	> 50 µM	> 2 µM
60 to 85 °C	COCC1=C(C(=O)OC)[C@H](c2ccc(F)c(F)c2)N(C(=O)NCCC[n+]2ccc(-c3ccccn3)cc2)C(=O)N1 (as salt: chloride) [Compound 3, 4-(2-Pyridyl)-1-{3-[5-carboxymethyl-4-methoxymethyl-2-oxo-6(S)-(3,4-difluorphenyl)-1,2,3,6-tetrahydropyrimidin-1-yl]carboxyaminopropyl}pyridinium chloride]	–	–	–	–
90 to 95 °C	O=C1OCC2=C1C(c1ccc(F)c(F)c1)N(C(=O)NCCCN1CCC(c3ccccn3)CC1)C(=O)N2 (single isomer, unassigned; (+)) (as salt: hydrochloride) [Compound 8, (+)-1-3-{[4-(3,4-Difluorophenyl)-2,5-dioxo-1,2,5,7-tetrahydro-4H-furo[3,4-d]-pyrimidine-3-carbonyl]amino}-propyl-4-(2-pyridyl)-piperidine]	–	–	–	–

Reference: patent US6680323B2, “Dihydropyrimidines and uses thereof” (Synaptic Pharmaceutical Corporation, priority 1998, dated 2004)
